Measurements published in patent US10209240B2, “Predicting human developmental toxicity of pharmaceuticals using human stem-like cells and metabolomic ratios” (STEMINA BIOMARKER DISCOVERY, INC., priority 2012, dated 2019).
Where two headings read alike, the source gives them in different places.

Legend:
[1] = test system: WA09 hES cells
[2] = test system: rat whole embryo; conditions: training and test set; weak/moderate and strong teratogens both labeled teratogen; cited from earlier work
[3] = test system: Rabbit; conditions: training and test set; cited from earlier work
[4] = test system: Rodent; conditions: training and test set; cited from earlier work
[5] = test system: mouse embryonic stem cell; conditions: training and test set; weak/moderate and strong teratogens both labeled teratogen; cited from earlier work
[6] = test system: WA09 hES cells; experiment: Phase 2 targeted biomarker assay, ornithine/cystine ratio, 9-point dose response
Procedure, shortened: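 WA09 hES cells (≤ passage 40), plated as single cells at 100,000/well on Matrigel in mTeSR1 with 10 μM Y27632, dosed 24 h later with nine 3-fold dilutions, 0.04–300 μM, 0.1% DMSO, for 72 h. Final-24 h spent medium, spiked with 13C6-arginine and filtered (<10 kDa), analysed by LC-HRMS; viability by CellTiter-Fluor.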

[7] = test system: zebrafish; conditions: training and test set; weak/moderate and strong teratogens both labeled teratogen; cited from earlier work
[8] = summarized from TERIS and Briggs et al. 2011, cited from earlier work
[9] = therapeutic peak plasma in vivo concentration, human, cited from earlier work
[10] = test system: Humans; conditions: cited from earlier work; for Humans (known human developmental toxicity): training and test set; for Known Effect: validation and test set treatments of Example 2
[11] = test system: hES cells; experiment: devTOX computational model predictions (Version 2.0, Version 2.1) from hES cell metabolomics; type: cell-based, human; conditions: single dose per treatment (Dose column)
Source text: The selection process weighted the predictive capacity of a feature, overall intensity, and peak shape to identify very well behaved features/metabolites that could be measured by targeted LC-MS or even by other detection systems.
(§1) This simplified model is based on a ratio of the reference treatment (DMSO) normalized values of ADMA and cystine.

[12] = test system: hES cells; experiment: ADMA/cystine ratio simplified predictive model in hES cell spent media; type: cell-based, human; conditions: single dose per treatment; ratios less than 0.9 indicate teratogenicity
Source text: as §1
The X-axis is the reference normalized ratio of ADMA/Cystine. The y-axis is the training set of pharmaceuticals. Grey color with triangle glyphs represents teratogens and black color with circle glyphs represents non-teratogens. Each glyph point represents the media value of an independent experimental block (6 reps per block). The crosshair glyphs mark the sample medians. In FIG. 9, grey vertical line is threshold of teratogenicity, grey horizontal lines are the median absolute deviations, and black vertical line designates 1.0. The arrows at the bottom indicate the values used for differentiation of teratogens and nonteratogens, utilizing a cut off of 0.9 (grey line).

[13] = training and test set, o/c ratio scored against therapeutic Cmax
[14] = training set, interpolated concentration where o/c ratio dose response curve crosses teratogenicity threshold 0.88, 72 hours
[15] = training set, teratogenicity potential scored against therapeutic Cmax

Compound | WEC prediction [2] | Rabbit prediction [3] | Rodent prediction [4] | mEST prediction [5] | ZET prediction [7] | Cmax ([9]; training set) [nM] | Viability Prediction [1] | Teratogenicity Potential (μM) Cell Viability ([1]; human, 72 h) [µM] | Change in the o/c ratio, also relative to cytotoxicity [6] | O/C Ratio Prediction [6] | Targeted Biomarker Assay prediction [6] | Teratogenicity Potential (μM) O/C Ratio ([6]; human, 72 h) [µM] | Humans (known human developmental toxicity) [10] | Known Effect [10] | Model Predictions Version 2.0 [11] | Model Predictions Version 2.1 [11] | Model Predictions ADMA/Cystine [12] | Preclinical in vivo and known human developmental effects ([8]; training set compounds) | other results
CCOC(=O)N1CCC(=C2c3ccc(Cl)cc3CCc3cccnc32)CC1 [Loratadine] | NON^f,j | NON | NON | NON^i | TER^d | – | – | – | – | – | – | – | – | – | – | – | – | – | Teratogenicity Potential (μM) Cell Viability ([1]; test set, interpolated concentration where cell viability dose response curve crosses teratogenicity threshold 0.88, 72 hours): 76.3 µM; Viability Prediction ([1]; test set, teratogenicity potential scored against therapeutic Cmax): NON; Targeted Biomarker Assay prediction [6, 13]: NON; Preclinical in vivo and known human developmental effects ([8]; test set compounds): None
O=C1NS(=O)(=O)c2ccccc21 [Saccharin] | NON^j | NON | NON | NON^b,i | NON^c,e | 1400 | NON | >300 | no change in the o/c ratio or viability | NON | NON | >300 | NON | Non | Non | Non | Non | None | –
CCN(CC)CCNC(=O)c1cc(Cl)c(N)cc1OC [Metoclopramide] | NON^f,j | NON | NON | TER^i,m | NON^d | – | NON | >300 | – | NON | NON | 190.8 | NON | Non | Ter | Non | Non | – | Cmax ([9]; test set): 150 nM; Preclinical in vivo and known human developmental effects ([8]; test set compounds): None
Cytosine Arabinoside | TER^j | – | TER | TER^i | TER^n | 600 | – | – | – | – | – | – | – | Ter | Ter | Ter | Ter | Limb | Teratogenicity Potential (μM) Cell Viability [1]: 0.1 µM; Teratogenicity Potential (μM) O/C Ratio [6, 14]: 0.04 µM
CC1(C)S[C@@H]2[C@H](NC(=O)Cc3ccccc3)C(=O)N2[C@H]1C(=O)O [Penicillin G] | NON^f,j | NON | NON | NON^b,i | NON^c,e,n | 135000 | – | – | – | – | – | – | NON | Non | Non | Non | Non | None | Teratogenicity Potential (μM) Cell Viability ([1]; training set, interpolated concentration where cell viability dose response curve crosses teratogenicity threshold 0.88, 72 hours): >300 µM; Viability Prediction [1, 15]: NON; Targeted Biomarker Assay prediction [6, 13]: NON; Teratogenicity Potential (μM) O/C Ratio [6, 14]: >300 µM; O/C Ratio Prediction [6, 15]: NON
CN(Cc1cnc2nc(N)nc(N)c2n1)c1ccc(C(=O)N[C@@H](CCC(=O)O)C(=O)O)cc1 [Methotrexate] | TER^f | TER | TER | TER^b,i | TER^d | 200 | TER | 0.05 | – | TER | TER | 0.05 | TER | Ter | Ter | Ter | Ter | Craniofacial, limb, skeletal, | Cytotoxicity at the Cmax exposure level ([1]; human, 72 h): greater than 30%
NNC(=O)c1ccncc1 [Isoniazid] | TER^f,j | NON | NON | NON^b,i | NON^c,n | 51000 | NON | >300 | – | NON | NON | 165.4 | NON | Non | Ter | Ter | Non | None | –
O=c1[nH]cc(F)c(=O)[nH]1 [5-Fluorouracil] | TER^f,k | TER | TER | TER^b,i | TER^c | 4250 | TER | 2 | change in o/c ratio that is directly correlated with a decrease in cell viability | TER | TER | 3 | TER | Ter | Ter | Ter | Ter | Craniofacial, central | Cytotoxicity at the Cmax exposure level ([1]; human, 72 h): greater than 30%
CC1=C(/C=C/C(C)=C/C=C/C(C)=C/CO)C(C)(C)CCC1 [Retinol] | TER^q | TER | TER | NON^p | TER^c,n | 2400 | NON | 42.8 | o/c ratio is directly correlated with cell death | NON | NON | 42.2 | NON | Non | Ter | Non | Non | Low Doses: None; High | Classification by o/c ratio in the targeted biomarker assay [6]: correctly classify; Exposure level of o/c ratio change/cell death relative to levels normally encountered by humans ([6]; human, 72 h): ~20 times; Dose shown to cause malformations ([10]; experimental animals and humans, Teratology Society 1987): > 25,000 IU/day; Dose without adverse effect on the developing fetus (FDA maximum RDA) ([10]; human pregnancy): ≤ 8,000 IU
